Assay [1] concerns the target T1, Aurora A kinase (Homo sapiens, UniProt O14965).
T1 sequence (O14965 1-403): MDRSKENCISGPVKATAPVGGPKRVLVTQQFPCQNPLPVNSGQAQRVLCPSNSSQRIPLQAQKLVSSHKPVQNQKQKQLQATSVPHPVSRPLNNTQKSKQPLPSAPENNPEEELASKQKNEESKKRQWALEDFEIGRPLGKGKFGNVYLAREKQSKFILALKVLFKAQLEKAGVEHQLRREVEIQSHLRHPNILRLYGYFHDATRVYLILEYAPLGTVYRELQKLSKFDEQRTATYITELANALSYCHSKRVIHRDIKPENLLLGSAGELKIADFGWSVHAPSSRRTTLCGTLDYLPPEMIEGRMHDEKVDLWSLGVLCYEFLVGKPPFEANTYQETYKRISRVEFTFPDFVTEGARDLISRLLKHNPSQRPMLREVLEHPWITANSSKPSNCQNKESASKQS
Nature of the assay: IC50 determination for inhibitors of Aurora A (ELISA-type kinase assay). The assay is classed as biochemical. Conditions: GST-Histone H3 substrate, mutant Aurora A kinase, 30 μM ATP, 40 minutes, read-out: IC50 Aurora A kinase inhibition. As for the experimental part:
Aurora A is a serine threonine kinase involved in spindle assembly and chromosome segregation. The assay is a typically ELISA-type assay where substrate (GST-Histone H3) is coupled to the assay-plate and is phosphorylated by the kinase. Phosphorylation is detected by a mouse anti-Phosphopeptid mAb and an HRP-labeled anti-mouse pAb. The assay is validated for IC50-determination.
Kinase activities were measured by Enzyme-Linked Immunosorbent Assay (ELISA): Maxisorp 384-well plates (Nunc) were coated with recombinant fusion protein comprising residues 1-15 of HistoneH3 fused to the N-terminus of Glutathione-S-Transferase. Plates were then blocked with a solution of 1 mg/mL I-block (a highly purified form of casein, Tropix cat. no. T2015) in phosphate-buffered saline. Kinase reactions were carried out in the wells of the ELISA plate by combining an appropriate amount of mutant Aurora A kinase with test compound and 30 μM ATP. The reaction buffer was 10× Kinase Buffer (Cell Signaling cat. no. 9802) supplemented with 1 μg/mL I-block. Reactions were stopped after 40 minutes by addition of 25 mM EDTA. After washing, substrate phosphorylation was detected by addition of anti-phospho-Histone H3 (Ser 10) 6G3 mAb (Cell Signaling cat. no. 9706) and sheep anti-mouse pAb-HRP (Amersham cat# NA931V), followed by colorimetric development with TMB (3,3′,5,5′-tetramethylbenzidine from Kirkegaard & Perry Laboratories). After readout of the adsorbance, IC50 values were calculated using a non-linear curve fit (XLfit software (ID Business Solution Ltd., Guilford, Surrey, UK)).

The test system of assay [2] is HCT 116 cells. Nature of the assay: Viability assay in HCT 116 cells (CellTiter-Glo). The assay is classed as cell-based. The note with it: HCT 116 human colon carcinoma cells, 5 days incubation, ATP luminescence readout. As for the experimental part: A viability assay was performed using the CellTiter-Glo® Luminescent Cell Viability Assay (see Promega Corporation's Technical Bulletin No. 288, pp. 1-11 [revised 2/04] which is hereby incorporated by reference in its entirety). This assay is a homogeneous method of determining the number of viable cells in culture based on quantitation of the ATP present, an indicator of metabolically active cells. The assay is designed for use with multiwell formats, making it ideal for automated high-throughput screening (HTS), cell proliferation and cytotoxicity assays. The homogeneous assay procedure involves adding a single reagent (containing luciferase, luciferan substrate, and buffer) directly to cells cultured in serum-supplemented medium. Cell washing, removal of medium and multiple pipetting steps are not required. The system detects as few as 15 cells/well in a 384-well format in 10 minutes after adding reagent and mixing.
The homogeneous “add-mix-measure” format results in cell lysis and generation of a luminescent signal proportional to the amount of ATP present. The amount of ATP is directly proportional to the number of cells present in culture. The above-referenced assay generates a “glow-type” luminescent signal, produced by the luciferase reaction, which has a half-life generally greater than five hours, depending on cell type and medium used. The extended half-life eliminates the need to use reagent injectors and provides flexibility for continuous or batch mode processing of multiple plates. The unique homogeneous format avoids errors that may be introduced by other ATP measurement methods that require multiple steps.
HCT 116 cells (human colon carcinoma, ATCC-No. CCl-247) were cultivated in RPMI 1640 medium with GlutaMAX™ I (cell culture media that contains L-Alanyl-L-Glutamine [a stabilized a form/source of L-Glutamine] from Invitrogen, Cat-No. 61870-010), 2.5% Fetal Calf Serum (FCS, Sigma Cat-No. F4135 (FBS)); 100 Units/ml penicillin/100 μg/ml streptomycin (=Pen/Strep from Invitrogen Cat. No. 15140). For the assay the cells were seeded in 384 well plates, 1000 cells per well, in the same medium. The next day the test compounds were added in various concentrations ranging from 30 μM to 0.0015 μM (10 concentrations, 1:3 diluted). After 5 days the viability assay was done according to the instructions of the manufacturer. In brief: the cell-plate was equilibrated to room temperature for approximately 30 minutes and then reagent (containing luciferase, luciferan substrate, and buffer) was added. The contents were carefully mixed for 15 minutes to induce cell lysis. After 45 minutes the luminescent signal was measured in Victor 2, (scanning multiwell spectrophotometer, Wallac).
Medium: RPMI 1640 with cell culture media containing L-Alanyl-L-Glutamine [GlutaMAX™ I (Invitrogen, Cat-No. 61870)], 5% FCS (Sigma Cat.-No. F4135), Pen/Strep (Invitrogen, Cat No. 15140).
HCT116 (ATCC-No. CCl-247): 1000 cells in 60 μl per well of 384 well plate (Greiner 781098, μClear-plate white)
After seeding incubate plates 24 h at 37° C., 5% CO2
2nd. Day: Induction (Treatment with Compounds, 10 Concentrations):
In order to achieve a final concentration of 30 μM as highest concentration […] of 10 mM compound stock solution were added directly to […] media. Then step d) of the dilution procedure described below, was followed. […]
In general terms: ATP-based viability assays read luminescence as a measure of living cells.

Turning to `CCN1C(=O)C(C)(C)c2cc3[nH]c(-c4n[nH]cc4NC(=O)N4CCC(OC)CC4)nc3cc21` [Example F-6], in assay [1], the IC50 (usually the concentration at which inhibition is half-maximal) was found to be 11 nM.
Consider `CCN1C(=O)C(C)(C)c2cc3[nH]c(-c4n[nH]cc4NC(=O)c4cnccn4)nc3cc21` [Example C-11, Pyrazine-2-carboxylic acid[3-(5-ethyl-7,7-dimethyl-6-oxo-1,5,6,7-tetrahydro-imidazo[4,5-f]indol-2-yl)-1H-pyrazol-4-yl]-amide], for which the IC50 in assay [1] was determined as 3 nM.
Consider `CCN1C(=O)C(C)(C)c2cc3[nH]c(-c4n[nH]cc4NC(=O)C(F)(F)F)nc3cc21` [Example A-5, N-[3-(5-Ethyl-7,7-dimethyl-6-oxo-1,5,6,7-tetrahydro-imidazo[4,5-f]indol-2-yl)-1H-pyrazol-4-yl]-2,2,2-trifluoro-acetamide], for which the IC50 in assay [1] came out at 29 nM.
On the same count and under the same terms, the value for `CCN1C(=O)C(C)(C)c2cc3[nH]c(-c4n[nH]cc4NC(=O)CC(C)C)nc3cc21` [Example B-20, N-[3-(5-Ethyl-7,7-dimethyl-6-oxo-1,5,6,7-tetrahydro-imidazo[4,5-f]indol-2-yl)-1H-pyrazol-4-yl]-3-methyl-butyramide] was 2 nM.
With `CCN1C(=O)C(C)(C)c2cc3[nH]c(-c4n[nH]cc4NC(=O)c4cccnc4)nc3cc21` [Example B-3, N-[3-(5-Ethyl-7,7-dimethyl-6-oxo-1,5,6,7-tetrahydro-imidazo[4,5-f]indol-2-yl)-1H-pyrazol-4-yl]-nicotinamide], half-maximal inhibition in assay [2] (120 h) (IC50) required 57 nM.
`CCN1C(=O)C(C)(C)c2cc3[nH]c(-c4n[nH]cc4NC(=O)N(C)C)nc3cc21` [Example E-10, 3-[3-(5-Ethyl-7,7-dimethyl-6-oxo-1,5,6,7-tetrahydro-imidazo[4,5-f]indol-2-yl)-1H-pyrazol-4-yl]-1,1-dimethyl-urea] registered an IC50 in assay [2] (120 h) of 61 nM.
Regarding `CCN1C(=O)C(C)(C)c2cc3[nH]c(-c4n[nH]cc4NC(C)=O)nc3cc21` [Example A-1, N-[3-(5-Ethyl-7,7-dimethyl-6-oxo-1,5,6,7-tetrahydro-imidazo[4,5-f]indol-2-yl)-1H-pyrazol-4-yl]-acetamide], 311 nM corresponded to half-maximal inhibition in assay [2] (120 h) (IC50).
As to `CCN1C(=O)C(C)(C)c2cc3nc(-c4n[nH]cc4NS(C)(=O)=O)[nH]c3cc21` [Example H-2, N-[3-(5-Ethyl-7,7-dimethyl-6-oxo-3,5,6,7-tetrahydro-imidazo[4,5-f]indol-2-yl)-1H-pyrazol-4-yl]-methanesulfonamide], the IC50 in assay [1] stood at 24 nM.
The same measure, in the same setting: the value for `CCN(CC)C(=O)Nc1c[nH]nc1-c1nc2cc3c(cc2[nH]1)C(C)(C)C(=O)N3CC` [Example E-8, 1,1-Diethyl-3-[3-(5-ethyl-7,7-dimethyl-6-oxo-1,5,6,7-tetrahydro-imidazo[4,5-f]indol-2-yl)-1H-pyrazol-4-yl]-urea] was 1 nM.
As to `CCN(CCN(C)C)C(=O)Nc1c[nH]nc1-c1nc2cc3c(cc2[nH]1)C(C)(C)C(=O)N3CC` [Example F-4, 1-(2-Dimethylamino-ethyl)-1-ethyl-3-[3-(5-ethyl-7,7-dimethyl-6-oxo-1,5,6,7-tetrahydro-imidazo[4,5-f]indol-2-yl)-1H-pyrazol-4-yl]-urea], in assay [2] (120 h), the IC50 came out at 28 nM.
Same read-out and setting: the value for `CCN1C(=O)C(C)(C)c2cc3[nH]c(-c4n[nH]cc4NC(=O)OC)nc3cc21` [Example E-6, [3-(5-Ethyl-7,7-dimethyl-6-oxo-1,5,6,7-tetrahydro-imidazo[4,5-f]indol-2-yl)-1H-pyrazol-4-yl]-carbamic acid methyl ester] was 378 nM; that for `CCN1C(=O)C(C)(C)c2cc3[nH]c(-c4n[nH]cc4NC(=O)COC)nc3cc21` [Example B-22, N-[3-(5-Ethyl-7,7-dimethyl-6-oxo-1,5,6,7-tetrahydro-imidazo[4,5-f]indol-2-yl)-1H-pyrazol-4-yl]-2-methoxy-acetamide] was 99 nM.
As for `CCN1C(=O)C(C)(C)c2cc3[nH]c(-c4n[nH]cc4NC(=O)OCc4ccccc4)nc3cc21` [Example E-5, [3-(5-Ethyl-7,7-dimethyl-6-oxo-1,5,6,7-tetrahydro-imidazo[4,5-f]indol-2-yl)-1H-pyrazol-4-yl]-carbamic acid benzyl ester], in assay [1], the IC50 stood at 19 nM.
The same measure, in the same setting: the result for `CCN1C(=O)C(C)(C)c2cc3[nH]c(-c4n[nH]c(C)c4NCc4ccccc4)nc3cc21` [Example G-2, 2-(4-Benzylamino-5-methyl-1H-pyrazol-3-yl)-5-ethyl-7,7-dimethyl-5,7-dihydro-1H-imidazo[4,5-f]indol-6-one] reads 32 nM.
The molecule `CCN1C(=O)C(C)(C)c2cc3[nH]c(-c4n[nH]cc4NC(=O)c4ccc5c(c4)OCCO5)nc3cc21` [Example C-13, 2,3-Dihydro-benzo[1,4]dioxine-6-carboxylic acid[3-(5-ethyl-7,7-dimethyl-6-oxo-1,5,6,7-tetrahydro-imidazo[4,5-f]indol-2-yl)-1H-pyrazol-4-yl]-amide] had an IC50 in assay [2] of 63 nM.

(Values after patent US7462639B2, “Aminopyrazole derivatives” (Hoffmann-La Roche Inc., priority 2005, dated 2008).)
